Measured values taken from patent US12606572B2, “Substituted heterocycles and uses thereof” (Kumquat Biosciences Inc., priority 2023, dated 2026).

What was measured:
KRAS WT = target: T1, KRAS WT (Homo sapiens, UniProt P01116); experiment: HTRF assay, interaction of GST-tagged K-Ras with His-tagged hSOS1 (KRAS wildtype); format: biochemical; details: <500 nM, read-out: Inhibition of KRAS WT (IC50)
T1 construct: made in house; host or cells: E. coli BL21 (DE3)
Procedure, shortened: (§1)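 GST-K-Ras (G12S or WT) with anti-GST-Eu donor mixed with His-hSOS1 and anti-6His-XL665 acceptor in ~5 mM HEPES pH 7.4, 150 mM NaCl, 1 mM DTT, 0.05% BSA, 0.0025% Igepal. After ~10 min or longer, HTRF 665/620 nm ratio read.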

KRAS G12S = target: T2, KRAS G12S (Homo sapiens, UniProt P01116, G12S); experiment: HTRF assay, interaction of GST-tagged K-Ras with His-tagged hSOS1 (KRAS G12S); format: biochemical; details: <500 nM, read-out: Inhibition of KRAS G12S (IC50)
T2 construct: made in house; host or cells: E. coli BL21 (DE3)
T2 sequence (P01116 1-188 isoform P01116-2 G12S): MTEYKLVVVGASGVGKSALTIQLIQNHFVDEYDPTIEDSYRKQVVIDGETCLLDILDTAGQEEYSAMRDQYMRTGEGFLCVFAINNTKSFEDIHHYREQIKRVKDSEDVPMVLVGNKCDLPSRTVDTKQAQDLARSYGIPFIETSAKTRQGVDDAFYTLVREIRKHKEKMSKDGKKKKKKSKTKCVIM
Procedure, shortened: as §1

T1 sequence (P01116 1-188 isoform P01116-2): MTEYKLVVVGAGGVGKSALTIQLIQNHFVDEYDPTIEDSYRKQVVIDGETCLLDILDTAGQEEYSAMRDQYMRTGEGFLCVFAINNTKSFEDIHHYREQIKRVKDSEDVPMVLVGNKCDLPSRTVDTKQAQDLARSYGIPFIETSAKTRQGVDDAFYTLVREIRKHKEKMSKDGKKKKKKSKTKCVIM

Compound	IC50 (KRAS WT)	IC50 (KRAS G12S)
N#CCC1([C@@H]2[C@H](CN3CCOc4c(Cl)c(-c5ccc(F)c6sc(N)c(C#N)c56)c(F)c5nc(OC[C@@]67CCCN6C[C@H](F)C7)nc3c45)CN2C(=O)n2ccnc2)CC1 [Compound 442, 2-amino-4-(8-chloro-4-(((2S,3R)-2-(1-(cyanomethyl)cyclopropyl)-1-(1H-imidazole-1-carbonyl)azetidin-3-yl)methyl)-10-fluoro-2-(((2R,7aS)-2-fluorotetrahydro-1H-pyrrolizin-7a(5H)-yl)methoxy)-5,6-dihydro-4H-[1,4]oxazepino [5,6,7-de]quinazolin-9-yl)-7-fluorobenzo[b]thiophene-3-carbonitrile]	< 500 nM	< 500 nM
CC([C@H]1CCN1C(=O)n1cncn1)N1CCOc2c(Cl)c(-c3ccc(F)c4sc(N)c(C#N)c34)c(F)c3nc(OC[C@@]45CCCN4C[C@H](F)C5)nc1c23 (stereo partly drawn) [Compound 445, 4-(4-(1-((R)-1-(1H-1,2,4-triazole-1-carbonyl)azetidin-2-yl)ethyl)-8-chloro-10-fluoro-2-(((2R,7aS)-2-fluorotetrahydro-1H-pyrrolizin-7a (5H)-yl)methoxy)-5,6-dihydro-4H-[1,4]oxazepino[5,6,7-de]quinazolin-9-yl)-2-amino-7-fluorobenzo[b]thiophene-3-carbonitrile]	< 500 nM	< 500 nM
C=C(C(=O)N1CC(CN2CCOc3c(Cl)c(-c4ccc(F)c5sc(N)c(C#N)c45)c(F)c4nc(OC[C@@]56CCCN5C[C@H](F)C6)nc2c34)C1)C1CC1 [Compound 447, 2-amino-4-(8-chloro-4-((1-(2-cyclopropylacryloyl)azetidin-3-yl)methyl)-10-fluoro-2-(((2R,7aS)-2-fluorotetrahydro-1H-pyrrolizin-7a(5H)-yl)methoxy)-5,6-dihydro-4H-[1,4]oxazepino [5,6,7-de]quinazolin-9-yl)-7-fluorobenzo[b]thiophene-3-carbonitrile]	< 500 nM	< 500 nM
C[C@@H]1[C@H](N2CCCOc3c(Cl)c(-c4ccc(F)c5sc(N)c(C#N)c45)c(F)c4nc(OC[C@@]56CCCN5C[C@H](F)C6)nc2c34)CCN1C(=O)n1cnc(F)n1 [Compound 448, 2-amino-4-(9-chloro-11-fluoro-4-((2R,3R)-1-(3-fluoro-1H-1,2,4-triazole-1-carbonyl)-2-methylpyrrolidin-3-yl)-2-(((2R,7aS)-2-fluorotetrahydro-1H-pyrrolizin-7a(5H)-yl)methoxy)-4,5,6,7-tetrahydro-[1,5]oxazocino [4,3,2-de]quinazolin-10-yl)-7-fluorobenzo[b]thiophene-3-carbonitrile]	< 500 nM	< 500 nM
C[C@H](O)[C@H]1COc2c(Cl)c(-c3ccc(F)c4sc(N)c(C#N)c34)c(F)c3nc(OC[C@@]45CCCN4C[C@H](F)C5)nc(c23)N1CCN(C)C(=O)n1ccnc1 [Compound 449, N-(2-((5R)-9-(2-amino-3-cyano-7-fluorobenzo[b]thiophen-4-yl)-8-chloro-10-fluoro-2-(((2R,7aS)-2-fluorotetrahydro-1H-pyrrolizin-7a(5H)-yl)methoxy)-5-((S)-1-hydroxyethyl)-5,6-dihydro-4H-[1,4]oxazepino [5,6,7-de]quinazolin-4-yl)ethyl)-N-methyl-1H-imidazole-1-carboxamide]	< 500 nM	< 500 nM
Cc1cn(C(=O)N2CC[C@@H](N3CCCCc4nc(-c5ccc(F)c6sc(N)c(C#N)c56)c(F)c5nc(OC[C@@]67CCCN6C[C@H](F)C7)nc3c45)[C@H]2C)c(C)n1 [Compound 454, 2-amino-4-(11-((2R,3R)-1-(2,4-dimethyl-1H-imidazole-1-carbonyl)-2-methylpyrrolidin-3-yl)-4-fluoro-2-(((2R,7aS)-2-fluorotetrahydro-1H-pyrrolizin-7a (5H)-yl)methoxy)-8,9,10,11-tetrahydro-7H-1,3,6,11-tetraazacycloocta[de]naphthalen-5-yl)-7-fluorobenzo[b]thiophene-3-carbonitrile]	< 500 nM	< 500 nM

Now from value to molecule:

IC50 (KRAS WT)	IC50 (KRAS G12S)	Compound
< 500 nM	< 500 nM	C[C@@H]1CCOc2c(Cl)c(-c3ccc(F)c4sc(N)c(C#N)c34)c(F)c3nc(OC[C@@]45CCCN4C[C@H](F)C5)nc(c23)N1C[C@@H]1CN(C(=O)n2ccnc2)[C@@H]1C1(C)CC1 [Compound 455, 4-((5R)-4-(((2S,3R)-1-(1H-imidazole-1-carbonyl)-2-(1-methylcyclopropyl)azetidin-3-yl)methyl)-9-chloro-11-fluoro-2-(((2R,7aS)-2-fluorotetrahydro-1H-pyrrolizin-7a(5H)-yl)methoxy)-5-methyl-4,5,6,7-tetrahydro-[1,5]oxazocino[4,3,2-de]quinazolin-10-yl)-2-amino-7-fluorobenzo [b]thiophene-3-carbonitrile]
< 500 nM	< 500 nM	CC#CC(=O)N1CC(CN2CCOc3c(Cl)c(-c4ccc(F)c5sc(N)c(C#N)c45)c(F)c4nc(OC[C@@]56CCCN5C[C@H](F)C6)nc2c34)C1 [Compound 456, 2-amino-4-(4-((1-(but-2-ynoyl)azetidin-3-yl)methyl)-8-chloro-10-fluoro-2-(((2R,7aS)-2-fluorotetrahydro-1H-pyrrolizin-7a (5H)-yl)methoxy)-5,6-dihydro-4H-[1,4]oxazepino[5,6,7-de]quinazolin-9-yl)-7-fluorobenzo[b]thiophene-3-carbonitrile]
< 500 nM	< 500 nM	CC1C(CN2c3nc(OC[C@@]45CCCN4C[C@H](F)C5)nc4c(F)c(-c5ccc(F)c6sc(N)c(C#N)c56)c(Cl)c(c34)OC[C@@H]2[C@H](C)O)CCN1C(=O)n1ccnc1 (stereo partly drawn) [Compound 457, 4-((5R)-4-((1-(1H-imidazole-1-carbonyl)-2-methylpyrrolidin-3-yl)methyl)-8-chloro-10-fluoro-2-(((2R,7aS)-2-fluorotetrahydro-1H-pyrrolizin-7a(5H)-yl)methoxy)-5-((S)-1-hydroxyethyl)-5,6-dihydro-4H-[1,4]oxazepino[5,6,7-de]quinazolin-9-yl)-2-amino-7-fluorobenzo[b]thiophene-3-carbonitrile]
< 500 nM	< 500 nM	C/C(C#N)=C/C(=O)N1CC(CN2CCOc3c(Cl)c(-c4ccc(F)c5sc(N)c(C#N)c45)c(F)c4nc(OC[C@@]56CCCN5C[C@H](F)C6)nc2c34)C1 [Compound 459, 2-amino-4-(8-chloro-4-((1-((Z)-3-cyanobut-2-enoyl)azetidin-3-yl)methyl)-10-fluoro-2-(((2R, 7aS)-2-fluorotetrahydro-1H-pyrrolizin-7a(5H)-yl)methoxy)-5,6-dihydro-4H-[1,4]oxazepino[5,6,7-de]quinazolin-9-yl)-7-fluorobenzo [b]thiophene-3-carbonitrile]
< 500 nM	< 500 nM	C[C@@H]1[C@H](N2C[C@H](C)Oc3nc(-c4ccc(F)c5sc(N)c(C#N)c45)c(F)c4nc(OC[C@@]56CCCN5C[C@H](F)C6)nc2c34)CCN1C(=O)n1cnc(Cl)n1 [Compound 461, 2-amino-4-((S)-10-((2R,3R)-1-(3-chloro-1H-1,2,4-triazole-1-carbonyl)-2-methylpyrrolidin-3-yl)-4-fluoro-2-(((2R,7aS)-2-fluorotetrahydro-1H-pyrrolizin-7a(5H)-yl)methoxy)-8-methyl-9,10-dihydro-8H-7-oxa-1,3,6,10-tetraazacyclohepta[de]naphthalen-5-yl)-7-fluorobenzo[b]thiophene-3-carbonitrile]
